Measurements from PMC4564450, “Oral and inhaled p38 MAPK inhibitors: effects on inhaled LPS challenge in healthy subjects” (European Journal of Clinical Pharmacology, 2015).

Tests used:
[1] = Plasma pharmacokinetics (sparse sampling); format: in vivo, human; conditions: for Plasma concentration: PF-03715455 20 mg inhaled; for concentration at 23 h / concentration at 30.5 h: human, plasma, po, 30 mg, PH-797804 30 mg oral; for concentration at 23 h: 23 h post dose; for concentration at 30.5 h: 30.5 h post dose
[2] = tested on: p38 MAPK; conditions: no reference given; read-out: enzyme IC50; cited from earlier work
[3] = tested on: sputum neutrophils and macrophages after inhaled LPS; test: Inhaled LPS challenge in healthy subjects: induced sputum cell counts; format: in vivo, human; conditions: for attenuation of the modelled LPS response (sputum neutrophil percentage): PH-797804: studies 1 and 2, PF-03715455: study 2; for Mean (SD) sputum neutrophil percentage: 6 h post-LPS; for Macrophage Differential in sputum / Total Cell Count in sputum / Total Macrophage Count in sputum / Total Neutrophil Count in sputum: ANCOVA model mean; for Macrophage Differential in sputum, difference between the active treatment mean and the placebo mean: footnote: difference, not ratio
Experimental: Three randomised, double-blind, placebo-controlled crossover studies were performed; the effects of a single dose of active treatment was investigated in all three studies. […] Studies 2 and 3 were conducted at two UK centres: Quintiles Drug Research Unit, London, and Medicines Evaluation Unit, Manchester. […] The studies were performed during the following time periods: study 1, Sep 2006–Mar 2008; study 2, Jan 2011–Dec 2011; and study 3, Jul 2011–Jan 2012. The design of all three studies was similar. A baseline sputum sample was obtained within 14 days of the first study period when subjects were administered a single dose of randomised treatment. […] Induced sputum was obtained 6 h later to coincide with the maximal inflammatory response caused by inhaled LPS. […] This criterion was used to ensure that sputum cell counts after LPS challenge had returned to close to the original baseline values; this was done to reduce data variability between treatment periods. […] For each challenge, a 1-mg vial of lyophilised LPS (Escherichia coli serotype O26:B6, ref. L-2654, Sigma-Aldrich, Dorset, UK) was diluted with 4 mL of 0.9 % w/v sodium chloride. The reconstitution produced a 0.25 mg/mL solution, of which 2 mL was placed into the pre-calibrated dosimeter pot and administered via five inhalations from a breath-activated dosimeter (Mefar dosimeter MB3, Brescia, Italy). Each inhalation was performed over 3 s with a 6-s breath hold. […] Sputum was induced using normal saline after inhalation of salbutamol, and processing was performed using dithiothreitol (DTT) as previously described. The supernatants were stored at −80 °C for later analysis, while cells were used to produce cytoslides (Cytospin 4, Shandon, Runcorn, UK) for differential cell counting and immunocytochemistry. […] Cell viability was analysed by trypan blue exclusion. Cytoslides with % squamous cell counts <20 % were deemed to be of acceptable quality for differential cell counting. Unfixed cytoslides were wrapped in aluminium foil and stored frozen at −80 °C for immunocytochemistry. Sputum neutrophil percentage was the primary endpoint for all three studies. The neutrophil percentage was modelled using a mixed effects analysis of covariance (ANCOVA) model appropriate for a two-period, two-treatment or three-period, three-treatment crossover design. The fixed effects in the model were treatment and period. Subjects were modelled as a random effect. Additionally, the period-specific baseline was modelled as a covariate. This model was used for all sputum inflammatory markers, including the immunohistocytochemistry, where cell counts were log transformed before analyzing the data and percent differentials were not transformed. […] Ninety percent confidence intervals of the difference (non-transformed data) or the ratio (log-transformed data) were constructed based on the ANCOVA model.

[4] = cited from earlier work
[5] = study 2, PH-797804 30 mg oral (p = 0.0001) or PF-03715455 20 mg inhaled (p = 0.031), single dose
[6] = study 2, PH-797804 30 mg oral or PF-03715455 20 mg inhaled, single dose
[7] = study 2, PH-797804 30 mg oral or PF-03715455 20 mg inhaled, post LPS
[8] = study 2, post LPS, listed as PF-03715445
[9] = study 1, PH-797804 30 mg oral, post LPS

CC(C)(C)c1cc(NC(=O)NCc2ccccc2Sc2ccc3nnc(-c4ccccc4SCCO)n3c2)n(-c2ccc(O)c(Cl)c2)n1 [PF-03715455]
Plasma concentration ([1]; study 2, 1.5 h post dose): 472.6 (116.4) pg/mL | Plasma concentration ([1]; study 2, 6.5 h post dose): 110.6 (29.7) pg/mL | IC50 [2]: 0.005 to 0.05 nM | attenuation of the modelled LPS response (sputum neutrophil percentage) [3]: approximately 25% | reduction in mean sputum neutrophil percentage post-LPS compared to placebo [3, 5]: 8.0% | Mean (SD) sputum neutrophil percentage [3, 6]: 66.4 (14.0) % | Macrophage Differential in sputum [3, 7]: 30.78% | Total Cell Count in sputum [3, 7]: 3.83e+06 g⁻¹ | Total Macrophage Count in sputum [3, 7]: 1.09e+06 g⁻¹ | Total Neutrophil Count in sputum [3, 7]: 2.43e+06 g⁻¹ | Total Cell Count in sputum, Ratio of Means active/placebo ([3]; study 2, post LPS): 1.02 | Total Macrophage Count in sputum, Ratio of Means active/placebo ([3]; study 2, post LPS): 1.62 | Total Neutrophil Count in sputum, Ratio of Means active/placebo ([3]; study 2, post LPS): no effects | Macrophage Differential in sputum, difference between the active treatment mean and the placebo mean ([3]; study 2, post LPS): significantly attenuated | Macrophage Differential in sputum, difference between the active treatment mean and the placebo mean [3, 8]: 7.97% | Total Neutrophil Count in sputum, Ratio of Means active/placebo [3, 8]: 0.85

CNC(=O)c1ccc(C)c(-n2c(C)cc(OCc3ccc(F)cc3F)c(Br)c2=O)c1 [PH-797804]
improvement of FEV1 ([4]; COPD patients treated for 6 weeks): 93 mL | pulmonary function ([4]; COPD trial): clinically significant improvement | tolerability in COPD trials ([4]; oral, up to 24-week duration): well tolerated | concentration at 23 h ([1]; study 1): 38.9 ng/mL | concentration at 30.5 h ([1]; study 1): 37.8 ng/mL | concentration at 23 h ([1]; study 2): 56.8 ng/mL | concentration at 30.5 h ([1]; study 2): 49.2 ng/mL | attenuation of the modelled LPS response (sputum neutrophil percentage) [3]: approximately 50% | Mean (SD) sputum neutrophil percentage ([3]; study 1, PH-797804 30 mg oral single dose): 56.4 (24.0) % | reduction in mean sputum neutrophil percentage post-LPS compared to placebo ([3]; study 1, PH-797804 30 mg oral single dose, p = 0.0096): 15.1% | Total Macrophage Count in sputum [3, 9]: 470000 g⁻¹ | Total Neutrophil Count in sputum [3, 9]: 660000 g⁻¹ | reduction in mean sputum neutrophil percentage post-LPS compared to placebo [3, 5]: 15.3% | Mean (SD) sputum neutrophil percentage [3, 6]: 60.4 (17.9) % | Macrophage Differential in sputum [3, 7]: 36.39% | Total Cell Count in sputum [3, 7]: 2.02e+06 g⁻¹ | Total Macrophage Count in sputum [3, 7]: 620000 g⁻¹ | Total Neutrophil Count in sputum [3, 7]: 1.17e+06 g⁻¹
